This is an account of results in US20130184227A1, “Cytochrome P450 2C9 Inhibitors” (priority 2004, published 2013).

In series [1] the test system is CYP2C9. Particulars: for % inhibition of CYP2C9 activity: tolbutamide 1 mM, rat liver microsomes; for 4′-hydroxytolbutamide: Sprague-Dawley, rat, 7.5 min, pH 7.4.
Series [2] has as its system CYP2C9. Briefly: in vitro. Particulars: Sprague-Dawley, rat, microsomes.
Series [3] in a line: In vivo study in rodents: fluvastatin pharmacokinetics with or without tamarixetin. Particulars: tamarixetin pretreatment versus control, rats.
Method: (§1) The test system used is the Sprague-Dawley rat.
(§2) After overnight fast, rats are anesthetized and prepared with a jugular catheter. […] Twelve blood samples (including pre dose blank) are collected over 24 hours—0, 10, 20, 40, 60, 120, 240, 360, 480, 720, 1080 and 1440 minutes. Each sample (0.5 to 0.6 mL blood) is collected into microfuge tubes containing 20 uL of 10 IU heparin (anti-coagulant). After separation, plasma samples are protected from light and stored at −80° C. freezer.
Series [4] addresses CYP2C9 (Homo sapiens, UniProt P11712). Particulars: cited from earlier work.
Series [5] can be described thus: in vivo. Particulars: Sprague-Dawley, rat, po, 1.5 mg/kg; for Cmax: Cmax of fluvastatin.
Method: as §1, §2
The conditions of series [6]: rats; cited from earlier work.
The mark [7] stands for this setting: pH 7.4, % inhibition of CYP2C9 activity.
[8] abbreviates: pH 7.4, % inhibition of tolbutamide metabolism in microsomes.

What is called inhibition is the change of the read-out against control, counted positive when it falls. Broadly, the AUC(0-inf) is total exposure, with the tail of the curve extrapolated. A high value points to more exposure. Broadly, the AUC(0-t) is exposure summed from dosing to a finite time, without extrapolation to infinity. By MRT inf is commonly meant a mean duration of stay, worked out from the concentration-time curve. What is called Tmax is the time from dosing to the highest level. Broadly, the Cmax is the maximum level reached in the sampled fluid or tissue.

Where two headings read alike, the source gives them in different places.

Chain of CYP2C9 (Homo sapiens, UniProt P11712) (P11712 whole entry): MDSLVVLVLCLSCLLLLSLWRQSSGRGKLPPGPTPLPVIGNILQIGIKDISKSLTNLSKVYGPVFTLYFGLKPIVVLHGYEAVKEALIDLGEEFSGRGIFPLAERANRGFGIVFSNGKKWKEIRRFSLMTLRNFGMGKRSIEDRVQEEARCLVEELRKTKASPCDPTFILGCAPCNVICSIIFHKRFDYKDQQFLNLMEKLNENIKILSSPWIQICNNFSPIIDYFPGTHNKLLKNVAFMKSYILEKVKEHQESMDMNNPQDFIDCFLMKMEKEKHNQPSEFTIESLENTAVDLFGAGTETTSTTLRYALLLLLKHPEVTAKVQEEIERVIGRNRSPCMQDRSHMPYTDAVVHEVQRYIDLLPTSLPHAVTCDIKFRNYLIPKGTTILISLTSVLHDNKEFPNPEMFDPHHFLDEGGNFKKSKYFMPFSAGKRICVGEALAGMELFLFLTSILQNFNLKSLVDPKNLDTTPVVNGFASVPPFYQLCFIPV

Take `C=C(C)C1CC=C(C)CC1` (single isomer, unassigned; (+)) [(+)-Limonene]: the results for the “% inhibition of CYP2C9 activity” value in series [1] (test article 1 μM), in series [1] (test article 10 μM) and in series [1] (test article 100 μM) were 14.12%, 10.55% and 22.29%, respectively.

`COc1ccc([C@@H]2CC(=O)c3c(O)cc(O[C@@H]4O[C@H](CO[C@@H]5O[C@@H](C)[C@H](O)[C@@H](O)[C@H]5O)[C@@H](O)[C@H](O)[C@H]4O)cc3O2)cc1O` [Hesperidin]: the “% inhibition of CYP2C9 activity” value in series [1] (test article 1 μM) stood at 2.57%; in series [1] (test article 10 μM), 6.68%.

As to `O=c1cc(-c2ccc(O)c(O)c2)oc2cc(O)c([C@@H]3O[C@H](CO)[C@@H](O)[C@H](O)[C@H]3O)c(O)c12` [Homoorientin], the “% inhibition of CYP2C9 activity” value in series [1] (test article 1 μM) was determined as 3.37%; in series [1] (test article 10 μM), 2.45%; in series [1] (test article 100 μM), 20.19%.

On to `O=C1C[C@@H](c2ccc(O)cc2)Oc2cc(O)cc(O)c21` [Narigenin], for which the “% inhibition of CYP2C9 activity” value was 5.20% in series [1] (test article 1 μM), 49.98% in series [1] (test article 10 μM) and 79.70% in series [1] (test article 100 μM).

As to `COc1ccc(-c2oc3cc(O)cc(O)c3c(=O)c2O)cc1O` [Tamarixetin], the “4′-hydroxytolbutamide” value in series [1] (1 μM) came to 213.5696 ± 24.4309 ng; in series [1] (10 μM), 43.1 ± 2.5372 ng; in series [1] (100 μM), 35.49 ± 1.5825 ng. In addition, the inhibition at 7.5 min, 1 μM in series [2] (pH 7.4, % inhibition) was determined as 42%; in series [2] (setting [7]), 42%; in series [2] (setting [8]) it was 42%. The inhibition at 7.5 min, 10 μM in series [2] (pH 7.4, % inhibition) was 88.2%; in series [2] (setting [7]), 88.1%; in series [2] (setting [8]), 88.1%. Also, the inhibition at 7.5 min, 100 μM in series [2] (pH 7.4, % inhibition) was 90.2%; in series [2] (setting [7]), 90.2%; in series [2] (setting [8]), 90.2%. In addition, the “change of terminal elimination rate constant (k) of fluvastatin” value in series [3] is on record as “no apparent changes”.

As to `CC(C)n1c(/C=C/C(O)CC(O)CC(=O)O)c(-c2ccc(F)cc2)c2ccccc21` (stereo not shown) [fluvastatin], the “share of metabolism for which liver CYP2C9 is responsible” value in series [4] is listed as “approximately 80%”. Further, in series [5], the AUC(0-inf) turned out to be 950 ± 133 ng·h/mL, the exposure AUC(0-t) is 711 ± 81.5 ng·h/mL, the MRT inf amounted to 15.8 ± 1.56 h and the Tmax was found to be 4.7 ± 1.7 h. This compound also displayed a Cmax in series [5] of 63.1 ± 10.4 ng/mL. In addition, the Cmax in series [5] (control group) amounted to 63.1 ± 10.4 ng/mL.

As to `O=c1c(O)c(-c2ccc(O)c(O)c2)oc2cc(O)cc(O)c12` [quercetin], in series [2] (pH 7.4), the inhibition at 7.5 min, 1 μM is 15.1%; the inhibition at 7.5 min, 10 μM was 44.8%; the inhibition at 7.5 min, 100 μM was determined as 91.9%.

As to `CCCCNC(=O)NS(=O)(=O)c1ccc(C)cc1` [tolbutamide], in series [6], the oral bioavailability is on record as 90%.

In series [2] (setting [7]), `O=C(O)/C=C/c1ccccc1` [trans-cinnamic acid] yielded an inhibition at 7.5 min, 1 μM of 26.9%; an inhibition at 7.5 min, 10 μM of 15.8%; an inhibition at 7.5 min, 100 μM of 26.1%.

In series [2] (setting [7]), `C=CC(=C)CCC=C(C)C` [β-Myrcene] showed an inhibition at 7.5 min, 1 μM of 24.1%; an inhibition at 7.5 min, 10 μM of 16.6%; an inhibition at 7.5 min, 100 μM of 29.9%.

On to `O=c1cc(-c2ccccc2)oc2ccc3ccccc3c12` [β-Naphthoflavone], for which the “% inhibition of CYP2C9 activity” value in series [1] (test article 1 μM) came out at 2.35%; in series [1] (test article 10 μM), 4.64%.
